Laboratory results reported in patent publication US11542240B2, “STK19 inhibitors for treatment of cancer” (TRUSTEES OF BOSTON UNIVERSITY, priority 2018, dated 2023).

Tests used:
Experiment in all cases: biochemical
Assay type in all cases: binding
[1] = molecular target: panel of 468 diverse kinases (Homo sapiens, UniProt P10721, A829P); settings: KIT(A829P); 1000 nM; read-out: Percent Control
[2] = molecular target: panel of 468 diverse kinases (Homo sapiens, UniProt P16591); settings: FER; 1000 nM; read-out: Percent Control
[3] = molecular target: panel of 468 diverse kinases (Homo sapiens, UniProt P27037); settings: ACVR2A; 1000 nM; read-out: Percent Control
[4] = molecular target: panel of 468 diverse kinases (Homo sapiens, UniProt Q15139); settings: PRKD1; 1000 nM; read-out: Percent Control
[5] = molecular target: panel of 468 diverse kinases (Homo sapiens, UniProt P51817); settings: PRKX; 1000 nM; read-out: Percent Control
[6] = molecular target: panel of 468 diverse kinases (Homo sapiens, UniProt Q9UPZ9); settings: ICK; 1000 nM; read-out: Percent Control
[7] = molecular target: panel of 468 diverse kinases (Homo sapiens, UniProt Q9H2K8); settings: TAOK3; 1000 nM; read-out: Percent Control
[8] = molecular target: panel of 468 diverse kinases (Homo sapiens, UniProt Q96SB4); settings: SRPK1; 1000 nM; read-out: Percent Control
[9] = molecular target: panel of 468 diverse kinases (Homo sapiens, UniProt Q8TD08); settings: ERK8; 1000 nM; read-out: Percent Control
[10] = molecular target: panel of 468 diverse kinases (Homo sapiens, UniProt Q13554); settings: CAMK2B; 1000 nM; read-out: Percent Control
[11] = molecular target: panel of 468 diverse kinases (Homo sapiens, UniProt P80192); settings: MLK1; 1000 nM; read-out: Percent Control
[12] = molecular target: panel of 468 diverse kinases (Homo sapiens, UniProt Q8NG66); settings: NEK11; 1000 nM; read-out: Percent Control
[13] = molecular target: panel of 468 diverse kinases (Homo sapiens, UniProt Q9NYY3); settings: PLK2; 1000 nM; read-out: Percent Control
[14] = molecular target: panel of 468 diverse kinases (Homo sapiens, UniProt Q16513); settings: PKN2; 1000 nM; read-out: Percent Control
[15] = molecular target: panel of 468 diverse kinases (Homo sapiens, UniProt P29317); settings: EPHA2; 1000 nM; read-out: Percent Control
[16] = molecular target: panel of 468 diverse kinases (Homo sapiens, UniProt O14757); settings: CHEK1; 1000 nM; read-out: Percent Control
[17] = molecular target: panel of 468 diverse kinases (Homo sapiens, UniProt Q16584); settings: MLK3; 1000 nM; read-out: Percent Control
[18] = molecular target: panel of 468 diverse kinases (Homo sapiens, UniProt O43318); settings: TAK1; 1000 nM; read-out: Percent Control
[19] = molecular target: panel of 468 diverse kinases (Homo sapiens, UniProt Q8TDR2); settings: STK35; 1000 nM; read-out: Percent Control
[20] = molecular target: panel of 468 diverse kinases (Homo sapiens, UniProt P54756); settings: EPHA5; 1000 nM; read-out: Percent Control
[21] = molecular target: panel of 468 diverse kinases (Homo sapiens, UniProt Q6XUX3); settings: RIPK5; 1000 nM; read-out: Percent Control
[22] = molecular target: panel of 468 diverse kinases (Homo sapiens, UniProt Q13546); settings: RIPK1; 1000 nM; read-out: Percent Control
[23] = molecular target: panel of 468 diverse kinases (Homo sapiens, UniProt Q5S007, G2019S); settings: LRRK2(G2019S); 1000 nM; read-out: Percent Control
[24] = molecular target: panel of 468 diverse kinases (Homo sapiens, UniProt Q09013); settings: DMPK; 1000 nM; read-out: Percent Control
[25] = molecular target: panel of 468 diverse kinases (Homo sapiens, UniProt P42336, E545A); settings: PIK3CA(E545A); 1000 nM; read-out: Percent Control
[26] = molecular target: panel of 468 diverse kinases (Homo sapiens, UniProt P24941); settings: CDK2; 1000 nM; read-out: Percent Control
[27] = molecular target: panel of 468 diverse kinases (Homo sapiens, UniProt P51957); settings: NEK4; 1000 nM; read-out: Percent Control
[28] = molecular target: panel of 468 diverse kinases (Homo sapiens, UniProt P37173); settings: TGFBR2; 1000 nM; read-out: Percent Control
[29] = molecular target: panel of 468 diverse kinases (Homo sapiens, UniProt Q96PN8); settings: TS SK3; 1000 nM; read-out: Percent Control
[30] = molecular target: panel of 468 diverse kinases (Homo sapiens, UniProt P08581, M1250T); settings: MET(M1250T); 1000 nM; read-out: Percent Control
[31] = molecular target: panel of 468 diverse kinases (Homo sapiens, UniProt P53667); settings: LIMK1; 1000 nM; read-out: Percent Control

Chain of panel of 468 diverse kinases (Homo sapiens, UniProt P37173) (P37173 23-567 limits assumed): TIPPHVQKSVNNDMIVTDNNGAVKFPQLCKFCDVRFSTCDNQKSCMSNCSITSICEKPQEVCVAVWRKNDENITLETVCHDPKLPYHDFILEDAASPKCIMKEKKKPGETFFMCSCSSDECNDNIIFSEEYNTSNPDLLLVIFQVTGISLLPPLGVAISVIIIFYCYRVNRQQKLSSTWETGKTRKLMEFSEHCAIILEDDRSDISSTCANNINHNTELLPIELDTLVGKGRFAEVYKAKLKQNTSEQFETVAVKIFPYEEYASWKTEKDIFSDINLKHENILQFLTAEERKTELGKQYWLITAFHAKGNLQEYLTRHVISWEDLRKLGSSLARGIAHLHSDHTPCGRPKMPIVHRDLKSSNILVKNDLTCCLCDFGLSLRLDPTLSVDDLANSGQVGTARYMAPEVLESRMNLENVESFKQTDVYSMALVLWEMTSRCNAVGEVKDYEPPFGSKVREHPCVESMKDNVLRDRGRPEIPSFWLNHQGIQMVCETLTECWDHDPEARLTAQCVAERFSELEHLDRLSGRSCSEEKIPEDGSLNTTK
Chain of panel of 468 diverse kinases (Homo sapiens, UniProt P54756) (P54756 25-1037 limits assumed): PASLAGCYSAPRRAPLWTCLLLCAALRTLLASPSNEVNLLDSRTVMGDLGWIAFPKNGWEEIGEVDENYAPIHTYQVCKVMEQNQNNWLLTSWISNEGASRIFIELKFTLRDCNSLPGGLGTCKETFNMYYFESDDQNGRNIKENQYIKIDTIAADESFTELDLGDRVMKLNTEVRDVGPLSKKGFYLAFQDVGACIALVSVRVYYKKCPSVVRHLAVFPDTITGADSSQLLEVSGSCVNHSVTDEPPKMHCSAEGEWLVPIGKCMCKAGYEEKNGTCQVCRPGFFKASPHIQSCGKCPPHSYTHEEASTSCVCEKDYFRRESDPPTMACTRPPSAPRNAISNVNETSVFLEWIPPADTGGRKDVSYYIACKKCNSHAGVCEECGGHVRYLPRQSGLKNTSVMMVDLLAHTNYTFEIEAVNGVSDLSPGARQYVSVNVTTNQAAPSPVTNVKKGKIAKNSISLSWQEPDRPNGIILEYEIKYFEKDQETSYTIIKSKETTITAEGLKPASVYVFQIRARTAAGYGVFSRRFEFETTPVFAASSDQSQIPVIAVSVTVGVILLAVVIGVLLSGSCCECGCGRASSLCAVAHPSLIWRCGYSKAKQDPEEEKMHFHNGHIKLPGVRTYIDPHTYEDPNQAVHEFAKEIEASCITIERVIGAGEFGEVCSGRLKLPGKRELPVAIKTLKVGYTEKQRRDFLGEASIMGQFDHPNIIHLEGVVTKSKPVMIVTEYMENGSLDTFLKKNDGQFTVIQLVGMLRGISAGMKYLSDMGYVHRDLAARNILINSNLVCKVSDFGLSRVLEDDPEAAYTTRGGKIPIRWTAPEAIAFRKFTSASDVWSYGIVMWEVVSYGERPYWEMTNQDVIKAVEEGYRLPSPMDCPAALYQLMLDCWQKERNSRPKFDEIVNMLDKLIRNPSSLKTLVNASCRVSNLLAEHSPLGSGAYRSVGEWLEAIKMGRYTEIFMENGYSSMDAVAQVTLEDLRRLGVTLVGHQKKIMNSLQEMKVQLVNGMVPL
Chain of panel of 468 diverse kinases (Homo sapiens, UniProt P29317) (P29317 24-976 limits assumed): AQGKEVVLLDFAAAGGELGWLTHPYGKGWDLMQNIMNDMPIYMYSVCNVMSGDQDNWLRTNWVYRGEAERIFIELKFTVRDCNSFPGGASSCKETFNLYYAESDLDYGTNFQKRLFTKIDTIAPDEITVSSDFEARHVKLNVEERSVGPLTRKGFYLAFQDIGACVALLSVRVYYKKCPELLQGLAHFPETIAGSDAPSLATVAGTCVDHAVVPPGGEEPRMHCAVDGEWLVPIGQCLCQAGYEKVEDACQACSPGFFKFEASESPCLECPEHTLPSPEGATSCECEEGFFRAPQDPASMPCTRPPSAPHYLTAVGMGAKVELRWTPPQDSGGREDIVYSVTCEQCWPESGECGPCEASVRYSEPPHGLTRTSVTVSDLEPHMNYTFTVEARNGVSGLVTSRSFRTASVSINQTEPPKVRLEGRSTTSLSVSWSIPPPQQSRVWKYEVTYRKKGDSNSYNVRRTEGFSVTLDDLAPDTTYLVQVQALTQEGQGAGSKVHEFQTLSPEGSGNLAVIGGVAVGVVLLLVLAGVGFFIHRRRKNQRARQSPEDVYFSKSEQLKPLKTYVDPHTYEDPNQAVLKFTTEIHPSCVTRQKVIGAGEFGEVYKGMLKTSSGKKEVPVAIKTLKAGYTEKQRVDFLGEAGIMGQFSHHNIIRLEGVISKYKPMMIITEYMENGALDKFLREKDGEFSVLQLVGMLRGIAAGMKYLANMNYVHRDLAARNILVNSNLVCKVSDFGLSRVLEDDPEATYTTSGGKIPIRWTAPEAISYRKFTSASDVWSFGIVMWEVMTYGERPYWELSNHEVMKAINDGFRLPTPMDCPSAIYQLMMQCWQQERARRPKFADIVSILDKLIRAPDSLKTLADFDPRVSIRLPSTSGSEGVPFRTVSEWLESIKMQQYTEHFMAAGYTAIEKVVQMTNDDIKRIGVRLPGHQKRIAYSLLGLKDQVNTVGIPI
Chain of panel of 468 diverse kinases (Homo sapiens, UniProt P27037) (P27037 20-513 limits assumed): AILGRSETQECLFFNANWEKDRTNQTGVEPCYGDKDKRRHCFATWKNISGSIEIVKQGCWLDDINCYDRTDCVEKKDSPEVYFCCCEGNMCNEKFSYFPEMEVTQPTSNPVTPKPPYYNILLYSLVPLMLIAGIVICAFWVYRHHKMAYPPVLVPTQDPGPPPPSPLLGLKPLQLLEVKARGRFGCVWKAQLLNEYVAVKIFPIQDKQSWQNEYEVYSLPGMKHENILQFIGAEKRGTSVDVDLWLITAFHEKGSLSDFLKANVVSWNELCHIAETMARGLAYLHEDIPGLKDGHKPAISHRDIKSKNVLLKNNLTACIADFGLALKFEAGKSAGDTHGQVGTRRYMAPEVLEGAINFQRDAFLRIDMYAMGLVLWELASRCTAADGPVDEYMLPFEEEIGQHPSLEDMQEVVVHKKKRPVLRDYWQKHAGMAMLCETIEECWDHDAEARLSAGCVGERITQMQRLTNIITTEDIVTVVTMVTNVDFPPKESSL
Chain of panel of 468 diverse kinases (Homo sapiens, UniProt P08581, M1250T) (P08581 25-1390 M1250T limits assumed): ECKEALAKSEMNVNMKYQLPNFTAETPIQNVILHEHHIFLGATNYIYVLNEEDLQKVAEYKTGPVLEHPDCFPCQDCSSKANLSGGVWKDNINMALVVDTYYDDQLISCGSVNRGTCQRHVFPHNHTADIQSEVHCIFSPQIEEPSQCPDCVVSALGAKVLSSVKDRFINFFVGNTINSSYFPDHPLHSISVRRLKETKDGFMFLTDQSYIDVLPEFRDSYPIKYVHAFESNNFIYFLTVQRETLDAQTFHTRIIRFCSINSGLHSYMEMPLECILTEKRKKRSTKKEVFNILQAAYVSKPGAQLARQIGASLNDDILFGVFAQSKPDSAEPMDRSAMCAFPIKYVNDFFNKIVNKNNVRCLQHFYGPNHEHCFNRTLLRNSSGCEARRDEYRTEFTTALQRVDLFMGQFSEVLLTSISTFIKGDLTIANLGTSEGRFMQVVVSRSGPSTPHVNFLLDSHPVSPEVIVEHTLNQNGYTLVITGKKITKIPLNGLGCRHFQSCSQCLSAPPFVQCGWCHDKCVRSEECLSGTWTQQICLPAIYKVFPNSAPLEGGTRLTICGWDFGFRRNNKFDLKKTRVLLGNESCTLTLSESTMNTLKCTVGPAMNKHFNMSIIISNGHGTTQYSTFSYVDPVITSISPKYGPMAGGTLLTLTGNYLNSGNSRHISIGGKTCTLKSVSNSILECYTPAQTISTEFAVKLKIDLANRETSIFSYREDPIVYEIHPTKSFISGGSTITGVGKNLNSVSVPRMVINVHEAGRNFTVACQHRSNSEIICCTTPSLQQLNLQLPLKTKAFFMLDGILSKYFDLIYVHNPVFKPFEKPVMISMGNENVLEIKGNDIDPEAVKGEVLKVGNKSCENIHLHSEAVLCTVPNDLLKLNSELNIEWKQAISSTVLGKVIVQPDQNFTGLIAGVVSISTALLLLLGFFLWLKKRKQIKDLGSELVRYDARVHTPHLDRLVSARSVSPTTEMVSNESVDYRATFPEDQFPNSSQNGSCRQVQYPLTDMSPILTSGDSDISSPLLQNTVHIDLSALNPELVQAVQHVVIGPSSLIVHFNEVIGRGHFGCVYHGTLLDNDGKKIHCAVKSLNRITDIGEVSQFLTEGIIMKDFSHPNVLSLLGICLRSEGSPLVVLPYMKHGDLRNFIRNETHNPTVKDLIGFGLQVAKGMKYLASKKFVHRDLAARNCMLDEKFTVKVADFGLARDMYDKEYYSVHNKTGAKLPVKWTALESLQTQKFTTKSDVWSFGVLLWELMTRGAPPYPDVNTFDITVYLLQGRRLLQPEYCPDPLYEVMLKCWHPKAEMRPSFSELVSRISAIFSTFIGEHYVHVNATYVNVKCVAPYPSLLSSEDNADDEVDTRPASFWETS

## COc1cc2nc(NC3CC3)nc(NC3CCN(C(C)C)CC3)c2cc1OC [Formula IV]
[1]
  remaining activity at 1 µM: 78%
[2]
  remaining activity at 1 µM: 90%
[3]
  remaining activity at 1 µM: 100%
[4]
  remaining activity at 1 µM: 100%
[5]
  remaining activity at 1 µM: 100%
[6]
  remaining activity at 1 µM: 100%
[7]
  remaining activity at 1 µM: 54%
[8]
  remaining activity at 1 µM: 97%
[9]
  remaining activity at 1 µM: 83%
[10]
  remaining activity at 1 µM: 91%
[11]
  remaining activity at 1 µM: 98%
[12]
  remaining activity at 1 µM: 42%
[13]
  remaining activity at 1 µM: 55%
[14]
  remaining activity at 1 µM: 98%
[15]
  remaining activity at 1 µM: 100%
[16]
  remaining activity at 1 µM: 93%
[17]
  remaining activity at 1 µM: 93%
[18]
  remaining activity at 1 µM: 84%
[19]
  remaining activity at 1 µM: 94%
[20]
  remaining activity at 1 µM: 86%
[21]
  remaining activity at 1 µM: 54%
[22]
  remaining activity at 1 µM: 87%
[23]
  remaining activity at 1 µM: 54%
[24]
  remaining activity at 1 µM: 99%
[25]
  remaining activity at 1 µM: 89%
[26]
  remaining activity at 1 µM: 91%
[27]
  remaining activity at 1 µM: 69%
[28]
  remaining activity at 1 µM: 94%
[29]
  remaining activity at 1 µM: 96%
[30]
  remaining activity at 1 µM: 88%
[31]
  remaining activity at 1 µM: 100%
